We go through one molecule from paper PMC4209961 (Journal of nuclear medicine : official publication, Society …, 2013).

This experiment concerns U87MG tumors. In words: Tumor growth. Type of experiment: in vivo, athymic nude mice. As to conditions: two doses of doxorubicin 5 mg/kg/dose two days apart, tail vein; at day 5 after the treatment started, P < 0.05.

Take `COc1cccc2c1C(=O)c1c(O)c3c(c(O)c1C2=O)C[C@@](O)(C(=O)CO)C[C@@H]3O[C@H]1C[C@H](N)[C@H](O)[C@H](C)O1` [doxorubicin]: the tumor growth response result is “significant growth inhibition”.
